The target in assay [1] is Human STING (hSTING, residues 155-341, wild-type sequence) (Homo sapiens, UniProt Q86WV6, H232R). The assay can be described thus: hSTING binding by differential scanning fluorimetry (DSF). To be noted: 100 μM test compound, 3 μM target protein, at least two Tm measurements averaged. The protocol: 3) 2 μl of this protein-dye-mixture (25×SYPRO Orange and 15 μM Protein) was added to 8 μl compound solution. Final volume was 10 μL. 4) Certain well positions were used as negative control. 5) The plates were prepared for duplicate measurement and centrifuged for 2 min at 1000 g. 6) In the measurement, 160 cycles of 0.5° C. were used (temperature ramp 15 s/cycle, 15° C. to 95° C.). Data analysis: The dissociation curves were processed in Bio-Rad CFX Manager. Peak type was set to “negative. At least two Tm measurements were averaged.
Sequence of Human STING (hSTING, residues 155-341, wild-type sequence) (Q86WV6 155-341 H232R limits assumed): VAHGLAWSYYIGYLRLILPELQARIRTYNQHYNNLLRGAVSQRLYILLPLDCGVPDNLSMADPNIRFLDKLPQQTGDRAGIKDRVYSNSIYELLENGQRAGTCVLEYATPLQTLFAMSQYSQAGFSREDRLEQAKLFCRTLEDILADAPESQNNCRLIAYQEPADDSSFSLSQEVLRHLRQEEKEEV
In general terms: In DSF a fluorescence change marks the thermal transition of the protein.

The target in assay [2] is T1, human STING protein in THP1-Blue ISG cells (Homo sapiens, UniProt Q86WV6, G230A/H232R/R293Q/R71H).
T1 construct: endogenous STING levels form the parental, unmodified THP1-Blue ISG cell lines; endogenous in cells; host or cells: THP1-Blue ISG cells
T1 sequence (Q86WV6 whole entry R71H/G230A/H232R/R293Q): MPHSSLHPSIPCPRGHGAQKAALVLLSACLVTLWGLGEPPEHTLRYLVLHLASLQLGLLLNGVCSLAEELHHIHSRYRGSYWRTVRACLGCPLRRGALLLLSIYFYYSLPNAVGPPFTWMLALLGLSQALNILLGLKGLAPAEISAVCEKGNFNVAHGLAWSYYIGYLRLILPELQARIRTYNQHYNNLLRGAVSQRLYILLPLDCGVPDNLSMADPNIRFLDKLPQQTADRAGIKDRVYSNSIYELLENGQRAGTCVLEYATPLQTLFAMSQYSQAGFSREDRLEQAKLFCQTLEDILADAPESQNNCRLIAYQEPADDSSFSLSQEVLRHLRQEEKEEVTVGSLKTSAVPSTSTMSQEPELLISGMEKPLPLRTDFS
The assay is described as follows: In vitro cytokine induction, THP1-Blue ISG reporter cell assay (IRF-inducible SEAP). In kind it is cell-based. As to conditions: 24 hours incubation, SEAP OD at 620 nm. The text has this:
Activation of the STING protein expressed in THP1 cells results in an increase of interferon production. By the stable integration of an interferon regulatory factor (IRF)-inducible SEAP (secreted embryonic alkaline phosphatase) reporter construct the functional interferon signaling pathway can be monitored. Using Invivogen's QUANTI-Blue™ colorimetric enzyme assay and a suitable optical density (OD) reader the activity of SEAP can be detected and quantified. This technique could be used to characterize pharmacological modification of the STING protein.
Measurements of SEAP activity were performed in THP1-Blue ISG cells stably expressing the human STING protein and the IRF-inducible SEAP reporter construct. Cells were cultivated for expansion in RPMI1640 medium with 10% fetal calf serum, 50 μg/ml Penicillin-Streptomycin, 100 μg/ml Zeocin, and 100 μg/ml Normocin in a 37°, 95% humidity and 5% CO2 incubator. Assay-ready cells were stored as frozen stocks.
In preparation for the assay, the cells were thawed in Zeocin-/Normocin-free medium and were distributed into the assay plates with a density of 15000 cells/15 μL per well. […]
At the day of the assay, 75 μl per well of Quanti-Blue reagent was added to all wells of the plate and the plate was incubated another 30 minutes at 37° C. The OD at 620 nm was measured on the EnVision reader (PerkinElmer). […]

The target in assay [3] is T2, hSTING WT (Homo sapiens, UniProt Q86WV6, H232R).
T2 construct: expressed in transfected cells; host or cells: THP1-Blue ISG hSTING KO clone, retroviral MSCV-ires-GFP-Blasti
T2 sequence (Q86WV6 whole entry H232R): as the sequence (Q86WV6 whole entry R71H/G230A/H232R/R293Q) above, with H71R, A230G, Q293R counted along it
The assay can be described thus: THP1-Blue ISG hSTING KO reporter cells re-expressing hSTING WT. In kind it is cell-based. To be noted: WT variant cell line. The text has this:
(§1) Several single nucleotide polymorphisms have been identified in the human STING gene that may affect the response to cyclic dinucleotides. To determine the activity of compounds of the invention, THP1-Blue ISG reporter cell lines expressing the different human STING variants have been generated. To do so, the endogenous human STING was first deleted using the CRISPR/CAS9 system: THP1-Blue ISG cells were electroporated with ALL-IN-ONE CRISPR plasmids targeting the STING gene (purchased from Sigma encoding the gRNA and GFP as a reporter gene for successful transduction). GFP positive cells then were sorted 24 h post transfection and expanded. Cells were then dispersed in semisolid methocel medium to allow single cell clone isolations. Clones were then screened for cGAMP responsiveness using the Quanti-blue reporter assay. Non-responsive clones were subsequently analysed for STING loss by western blotting and sequencing of the STING locus.
(§2) For the overexpression of the human STING variants, a confirmed THP1-Blue ISG hSTING KO clone was transduced with individual retroviral plasmids (MSCV-ires-GFP-Blasti) encoding the allelic variants of hSTING (WT, HAQ, R232H, AQ and R293Q), respectively. Transduced cells were sorted for different levels of GFP fluorescence and STING allele expression was analysed by western blot.

Assay [4] has as its target T3, hSTING HAQ (Homo sapiens, UniProt Q86WV6, G230A/H232R/R293Q/R71H).
T3 construct: expressed in transfected cells; host or cells: THP1-Blue ISG hSTING KO clone, retroviral MSCV-ires-GFP-Blasti
The assay can be described thus: THP1-Blue ISG hSTING KO reporter cells re-expressing hSTING HAQ. As to conditions: HAQ variant cell line. In kind it is cell-based.
Description: as §1, §2

For assay [5], the target named is T4, hSTING R232H (Homo sapiens, UniProt Q86WV6).
T4 construct: expressed in transfected cells; host or cells: THP1-Blue ISG hSTING KO clone, retroviral MSCV-ires-GFP-Blasti
T4 sequence (Q86WV6 whole entry, stated change not applied): as the sequence (Q86WV6 whole entry R71H/G230A/H232R/R293Q) above, with H71R, A230G, R232H, Q293R counted along it
The assay can be described thus: THP1-Blue ISG hSTING KO reporter cells re-expressing hSTING R232H. In kind it is cell-based. As to conditions: R232H variant cell line.
Description: as §1, §2

In assay [6] the target is T5, hSTING AQ (Homo sapiens, UniProt Q86WV6, G230A/H232R/R293Q).
T5 construct: expressed in transfected cells; host or cells: THP1-Blue ISG hSTING KO clone, retroviral MSCV-ires-GFP-Blasti
T5 sequence (Q86WV6 whole entry G230A/H232R/R293Q): as the sequence (Q86WV6 whole entry R71H/G230A/H232R/R293Q) above, with H71R counted along it
The assay can be described thus: THP1-Blue ISG hSTING KO reporter cells re-expressing hSTING AQ. In kind it is cell-based. To be noted: AQ variant cell line.
Description: as §1, §2

The target in assay [7] is T6, hSTING R293Q (Homo sapiens, UniProt Q86WV6, H232R/R293Q).
T6 construct: expressed in transfected cells; host or cells: THP1-Blue ISG hSTING KO clone, retroviral MSCV-ires-GFP-Blasti
T6 sequence (Q86WV6 whole entry H232R/R293Q): as the sequence (Q86WV6 whole entry R71H/G230A/H232R/R293Q) above, with H71R, A230G counted along it
The assay is described as follows: THP1-Blue ISG hSTING KO reporter cells re-expressing hSTING R293Q. In kind it is cell-based. As to conditions: R293Q variant cell line.
Description: as §1, §2

Experimental findings from patent US20210024567A1, “MODIFIED CYCLIC DINUCLEOTIDE COMPOUNDS” (BOEHRINGER INGELHEIM INTERNATIONAL GMBH, priority 2018, published 2021) are described below.

T3 sequence (Q86WV6 whole entry R71H/G230A/H232R/R293Q): as the sequence (Q86WV6 whole entry R71H/G230A/H232R/R293Q) above

In general, EC50 refers to the concentration needed to bring the measured effect to its halfway point. A high value points to lower potency in that assay. For `Nc1ncnc2c1ncn2[C@@H]1O[C@]23CO[C@@H]1[C@@H]2OP(=O)(S)OC[C@H]1O[C@@H](n2cnc4cncnc42)[C@H](F)[C@@H]1OP(=O)(S)OC3` (single isomer, unassigned) [Example 1.2, Cyclic (2′-F-2′-deoxynebularine-(3′→5′)-phosphorothioate-LNA-adenosine-(3′→5′)-phosphorothioate)], the “hSTING Tm shift” value in assay [1] was found to be 19.8 °C. The compound also had an EC50 in assay [2] of 160 nM.

Turning to `Nc1ncnc2c1ncn2[C@@H]1O[C@]23CO[C@@H]1[C@@H]2OP(=O)(S)OC[C@H]1O[C@@H](n2cnc4cncnc42)[C@H](F)[C@@H]1OP(=O)(S)OC3` (single isomer, unassigned) [Example 1.1, Cyclic (2′-F-2′-deoxynebularine-(3′→5′)-phosphorothioate-LNA-adenosine-(3′→5′)-phosphorothioate)], in assay [1] (read-out: hSTING Tm shift), the ΔTm at 100 µM was 28.8 °C. Also, the EC50 was 250 nM in assay [2]; at most 1000 nM in assay [3]; at most 1000 nM in assay [4]; at most 1000 nM in assay [5]; at most 1000 nM in assay [6]; at most 1000 nM in assay [7].
